Experimental data from patent EP4717694A1, “PYRAZOLFORMYL PIPERAZINONE COMPOUND, PHARMACEUTICAL COMPOSITION AND USE THEREOF” (Iregene Therapeutics Co., Ltd., priority 2023, dated 2024).

How the values were obtained:
[1] = molecular target: T1, BMPR2 (Homo sapiens, UniProt Q13873); experiment: Kinase activity assay (HTRF or ADP-Glo); format: biochemical
T1 sequence (Q13873 27-1038): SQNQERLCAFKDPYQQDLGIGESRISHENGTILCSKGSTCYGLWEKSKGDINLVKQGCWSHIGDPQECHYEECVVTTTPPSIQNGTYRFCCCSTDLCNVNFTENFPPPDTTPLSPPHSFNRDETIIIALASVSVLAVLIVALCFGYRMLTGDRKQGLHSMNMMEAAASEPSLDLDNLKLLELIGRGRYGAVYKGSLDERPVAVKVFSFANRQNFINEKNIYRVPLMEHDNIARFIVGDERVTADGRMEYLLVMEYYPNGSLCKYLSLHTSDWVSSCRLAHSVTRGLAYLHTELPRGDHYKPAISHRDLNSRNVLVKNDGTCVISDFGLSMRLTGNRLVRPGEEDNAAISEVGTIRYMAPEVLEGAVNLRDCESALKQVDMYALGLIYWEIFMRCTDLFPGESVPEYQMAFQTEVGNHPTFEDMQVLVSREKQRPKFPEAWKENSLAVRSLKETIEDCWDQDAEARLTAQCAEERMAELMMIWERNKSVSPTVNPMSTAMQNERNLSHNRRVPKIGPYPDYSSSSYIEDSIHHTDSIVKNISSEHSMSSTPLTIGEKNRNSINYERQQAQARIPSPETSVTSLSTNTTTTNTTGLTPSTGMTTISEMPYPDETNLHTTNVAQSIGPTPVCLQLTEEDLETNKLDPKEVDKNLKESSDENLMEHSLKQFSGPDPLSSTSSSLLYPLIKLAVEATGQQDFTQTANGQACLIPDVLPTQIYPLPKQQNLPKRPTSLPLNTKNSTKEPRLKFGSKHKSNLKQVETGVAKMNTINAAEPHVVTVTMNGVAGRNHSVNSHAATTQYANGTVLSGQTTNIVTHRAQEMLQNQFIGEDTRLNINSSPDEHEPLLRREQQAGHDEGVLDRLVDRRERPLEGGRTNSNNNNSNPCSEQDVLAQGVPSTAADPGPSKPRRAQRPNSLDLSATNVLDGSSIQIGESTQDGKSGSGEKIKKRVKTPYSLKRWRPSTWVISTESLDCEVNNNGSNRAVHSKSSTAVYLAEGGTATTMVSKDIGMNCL
Method: (§1) A total of 330 kinase candidates (15-50 nM, 2.5 µL) were mixed with compound II-1 (2.5 mM, 25 nL, prepared in DMSO) and incubated at 25 °C for 10 minutes. Then, a mixture of kinase peptide substrate (0.2 mg/mL; supplier: GenScript) and ATP (10-60 µM; supplier: Promega; product number: V915B) was added (total 2.5 µL, prepared in assay buffer), and the reaction was carried out at 25 °C for 60-120 minutes. Finally, the reaction products were quantified using HTRF1 or ADP-Glo2 methods. During the kinase activity assay, the consumption of each substrate was kept below 10%, and each kinase assay was performed in duplicate.

[2] = molecular target: T2, TGFBR1 (Homo sapiens, UniProt P36897); experiment: Kinase activity assay (HTRF or ADP-Glo); format: biochemical
T2 sequence (P36897 34-503): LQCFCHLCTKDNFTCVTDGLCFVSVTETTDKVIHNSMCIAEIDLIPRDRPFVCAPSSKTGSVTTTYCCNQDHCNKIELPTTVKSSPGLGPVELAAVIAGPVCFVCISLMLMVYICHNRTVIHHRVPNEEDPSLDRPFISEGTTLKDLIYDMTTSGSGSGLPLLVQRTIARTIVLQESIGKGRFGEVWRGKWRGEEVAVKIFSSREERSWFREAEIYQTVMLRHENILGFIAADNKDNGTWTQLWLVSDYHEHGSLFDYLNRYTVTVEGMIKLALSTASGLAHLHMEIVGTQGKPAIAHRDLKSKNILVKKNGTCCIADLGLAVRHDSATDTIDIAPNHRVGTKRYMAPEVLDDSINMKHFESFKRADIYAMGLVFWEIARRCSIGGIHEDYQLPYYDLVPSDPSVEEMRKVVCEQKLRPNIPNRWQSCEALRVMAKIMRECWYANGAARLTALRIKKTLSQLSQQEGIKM
Method: as §1

[3] = tested on: glioma U251 cells; experiment: Treatment of glioma cells, qPCR transcriptional analysis (CASP3) and cytotoxicity versus LY2157299; format: cell-based
Method: In this example, compound II-1 and the reference compound LY2157299 were used to treat glioma U251 cells. Samples were collected at 12 hours and 72 hours posttreatment. Total RNA was extracted using the Rneasy Mini or Micro Kit (QIAGEN), and […] of RNA was reverse-transcribed into cDNA using the SuperScript III First-Strand Synthesis System (Invitrogen). Quantitative PCR was performed using SYBR Premix Ex Taq (TaKaRa) on a Thermal Cycler Dice Real-Time System (TaKaRa), with beta-Actin serving as an internal control. All data were analyzed using the delta-Ct method. Each experiment was performed in triplicate, and variance analysis was conducted. […] Table 3. Primers for transcriptional analysis of cells treated with compound II-1

[4] = same concentration as in the 330 kinase screen

O=C1CN(C(=O)c2n[nH]c3c2CCC3)[C@H]2CCCC[C@@H]2N1 [II-1, (4aS,8aS)-4-(1,4,5,6-tetrahydrocyclopenta[c]pyrazole-3-carbonyl)octahydroquinoxalin-2(1H)-one]
inhibition of BMPR2 kinase ([1]; different concentrations, up to 12.5 µM, threefold serial dilution, Figure 1C): no inhibition | inhibition of kinase activity of BMPR2 [1, 4]: did not inhibit | inhibition of TGFBR1 kinase ([2]; different concentrations, up to 12.5 µM, threefold serial dilution, Figure 1B): no inhibition | inhibition of kinase activity of TGFBR1 [2, 4]: did not inhibit | cells remaining in the wells compared to LY2157299 ([3]; after 72 hours of treatment, Figure 3): fewer cells remained | apoptosis compared to LY2157299 ([3]; same concentration as LY2157299, Figure 3): higher apoptosis
